Among the test systems are MOLT-4 leukemia; SR leukemia; LOX IMVI melanoma; RXF 393 renal; OVCAR-8 ovarian; OVCAR-4 ovarian; 786-0 renal; SK-MEL-2 melanoma.
Common to all, as to assay: growth of human tumour cells (NCI), 48 h

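Results reflect a 48-hour exposure of cells in 96-well plates to compound at five concentrations. GI50 marks 50% less growth. The concentration for full growth arrest is given as TGI.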

Consider `CCOC(=O)c1ccc(N(CCOS(C)(=O)=O)CCOS(C)(=O)=O)cc1C`, for which the GI50 was 7.01 µM in the assay on MOLT-4 leukemia; 2.83 µM in the assay with SR leukemia; 29.1 µM in the assay with LOX IMVI melanoma; 17.8 µM in the assay with RXF 393 renal; 44 µM with OVCAR-8 ovarian; 20.9 µM with OVCAR-4 ovarian. Besides, the results for the GI50 in the assay on 786-0 renal and with SK-MEL-2 melanoma were 16.7 µM and 28.6 µM, respectively. Moreover, the TGI in the assay with MOLT-4 leukemia was more than 100 µM; with SR leukemia it was more than 100 µM; in the assay with LOX IMVI melanoma it was more than 100 µM; in the assay with RXF 393 renal, 33.3 µM; with OVCAR-8 ovarian it was more than 100 µM; with OVCAR-4 ovarian, 46.8 µM. Besides, the TGI is 42.2 µM in the assay with 786-0 renal and 67.5 µM in the assay on SK-MEL-2 melanoma.

On to `Cc1cc(O)c(C(c2cccnc2)c2c(O)cc(C)[nH]c2=O)c(=O)[nH]1`, for which the TGI in the assay with MOLT-4 leukemia, with SR leukemia, with LOX IMVI melanoma, with RXF 393 renal, in the assay with OVCAR-8 ovarian and in the assay with OVCAR-4 ovarian was more than 100 µM each time. In the assay with 786-0 renal, this compound registered a TGI of more than 100 µM.

Take `CN1CCC[C@@H]1CCO[C@](C)(c1ccccc1)c1ccc(Cl)cc1`: the GI50 with MOLT-4 leukemia is 4.12 µM; in the assay with SR leukemia it was 2.32 µM; with LOX IMVI melanoma, 3.02 µM; in the assay with RXF 393 renal it was 3.48 µM; in the assay with OVCAR-8 ovarian it was 10.8 µM; in the assay with OVCAR-4 ovarian, 8.46 µM. The figures for the GI50 with 786-0 renal and in the assay on SK-MEL-2 melanoma were 5.88 µM and 5 µM, respectively. For the same compound, the TGI in the assay on MOLT-4 leukemia worked out at 18.1 µM; with SR leukemia, 9.59 µM; with LOX IMVI melanoma, 14.2 µM; in the assay with RXF 393 renal, 13.9 µM; with OVCAR-8 ovarian, 24.7 µM; in the assay with OVCAR-4 ovarian, 22 µM. The TGI amounted to 19.7 µM with 786-0 renal and 16.2 µM in the assay on SK-MEL-2 melanoma.

Take `ClCc1ccc(-c2ccc(Cn3cnc4c(Cl)nc(Cl)nc43)cc2)cc1`: the GI50 was 1.95 µM in the assay on MOLT-4 leukemia; 1.9 µM in the assay with SR leukemia; 1.64 µM with LOX IMVI melanoma; 1.67 µM in the assay with RXF 393 renal; 3.39 µM in the assay on OVCAR-4 ovarian; 6.43 µM in the assay with 786-0 renal. The GI50 with SK-MEL-2 melanoma is 1.88 µM. Besides, the TGI with MOLT-4 leukemia stood at 6.97 µM; with SR leukemia, 6.43 µM; in the assay on LOX IMVI melanoma, 3.2 µM; in the assay on RXF 393 renal it was 3.38 µM; in the assay on OVCAR-4 ovarian, 13.3 µM; in the assay with 786-0 renal it was 19.6 µM. The TGI in the assay on SK-MEL-2 melanoma was 3.42 µM.

For the compound `CC#CS(=O)(=O)c1ccccc1`, the TGI in the assay with MOLT-4 leukemia turned out to be 1.43 µM; with LOX IMVI melanoma, 21 µM; in the assay on RXF 393 renal, 31.8 µM; in the assay on OVCAR-8 ovarian it was 12.5 µM; with OVCAR-4 ovarian, 11.7 µM; in the assay with 786-0 renal, 16.4 µM. This compound had a TGI in the assay on SK-MEL-2 melanoma of 32.5 µM.

For the compound `C#CCN=C(N/N=C/c1ccc([N+](=O)[O-])o1)NS(=O)(=O)c1cc(C)c(Cl)cc1SCC(N)=O`, the GI50 was 13.2 µM with MOLT-4 leukemia; 17 µM with SR leukemia; 8.14 µM with LOX IMVI melanoma; 13.8 µM in the assay with OVCAR-8 ovarian; 16.5 µM in the assay on OVCAR-4 ovarian; 19.4 µM in the assay with 786-0 renal. Moreover, in the assay on SK-MEL-2 melanoma, the GI50 was 4.97 µM. Moreover, the TGI in the assay with MOLT-4 leukemia amounted to 31.9 µM; in the assay on SR leukemia it was 50.1 µM; in the assay on LOX IMVI melanoma it was 35.2 µM; in the assay with OVCAR-8 ovarian it was 29.6 µM; in the assay on OVCAR-4 ovarian it was 33.3 µM; in the assay with 786-0 renal, 36.5 µM. Further, the TGI with SK-MEL-2 melanoma turned out to be 18.3 µM.

For `NC(CNO)C(=O)O` (centres undefined), the TGI with LOX IMVI melanoma, in the assay on RXF 393 renal, in the assay with OVCAR-8 ovarian, in the assay on OVCAR-4 ovarian, with 786-0 renal and in the assay with SK-MEL-2 melanoma was more than 100 µM in each case.

Regarding `Oc1ccc(CNCc2ccccc2)c2cccnc12`, the TGI is 18.9 µM in the assay with MOLT-4 leukemia; more than 100 µM in the assay with SR leukemia; more than 100 µM in the assay with LOX IMVI melanoma; more than 100 µM in the assay with OVCAR-8 ovarian; more than 100 µM with OVCAR-4 ovarian; more than 24.7 µM in the assay with 786-0 renal.

In the case of `Cc1n[nH]c(=S)n1/N=C/c1ccc(F)c(Oc2ccccc2)c1`, the GI50 is 47.6 µM in the assay on MOLT-4 leukemia; 51.1 µM in the assay with LOX IMVI melanoma; more than 100 µM in the assay with RXF 393 renal; 35.7 µM with OVCAR-8 ovarian; 44.9 µM in the assay on OVCAR-4 ovarian; 42.3 µM with 786-0 renal. Further, the TGI with MOLT-4 leukemia, in the assay with LOX IMVI melanoma, in the assay on RXF 393 renal, in the assay with OVCAR-8 ovarian, in the assay on OVCAR-4 ovarian and in the assay on 786-0 renal was more than 100 µM in each case.

Regarding `COc1cc(C#N)cc(OC)c1OCCOCCOc1c(OC)cc(C#N)cc1OC`, the GI50 with MOLT-4 leukemia is 21.3 µM; in the assay on SR leukemia it was 4.33 µM; with LOX IMVI melanoma it was more than 100 µM; in the assay with OVCAR-8 ovarian it was 51.3 µM; with OVCAR-4 ovarian, 73.5 µM; in the assay with 786-0 renal it was more than 100 µM. In addition, the GI50 in the assay with SK-MEL-2 melanoma was more than 100 µM. Also, the TGI in the assay on MOLT-4 leukemia, with SR leukemia, in the assay on LOX IMVI melanoma, in the assay on OVCAR-8 ovarian, in the assay on OVCAR-4 ovarian and with 786-0 renal was more than 100 µM each time. The compound also came in with a TGI with SK-MEL-2 melanoma of more than 100 µM.

Regarding `O=C(Nc1n[nH]c2nc(-c3ccco3)ccc12)C1CC1`, the GI50 in the assay on MOLT-4 leukemia, in the assay on LOX IMVI melanoma, with RXF 393 renal, with OVCAR-8 ovarian, in the assay on OVCAR-4 ovarian and with 786-0 renal was more than 25 µM in each case. In addition, in the assay with SK-MEL-2 melanoma, the GI50 was more than 25 µM. The TGI with MOLT-4 leukemia, in the assay with LOX IMVI melanoma, in the assay on RXF 393 renal, in the assay with OVCAR-8 ovarian, in the assay on OVCAR-4 ovarian and in the assay on 786-0 renal was more than 25 µM each time. Besides, the TGI in the assay on SK-MEL-2 melanoma was more than 25 µM.

As to `O=c1cc(-c2ccc(Cl)cc2)[nH]c2ncccc12`, the TGI in the assay on MOLT-4 leukemia is more than 100 µM; in the assay with SR leukemia, 37.5 µM; in the assay with LOX IMVI melanoma, more than 100 µM; in the assay on OVCAR-8 ovarian, more than 100 µM; in the assay on OVCAR-4 ovarian, more than 100 µM; in the assay with 786-0 renal, more than 100 µM. Besides, the TGI in the assay on SK-MEL-2 melanoma was more than 100 µM. For the same compound, the GI50 in the assay on 786-0 renal is 34.1 µM.

Source of the values: PubChem BioAssay (NCI).
